Common to all, as to type: physicochemical
The nature of data set [1]: UV-Vis absorbance loss and first-order bleaching kinetics of pigment solutions with ascorbic acid (pH 3.0 citrate buffer, 25° C., dark). Conditions: for K (reaction rate, first-order) / t1/2: 25° C. dark. As to the method:
The semi-purified chokeberry extract, the isolated cyanidin-3-galactoside, and the purified 5-carboxypyranocyanidin-3-galactoside were diluted in pH 3.0 citrate buffer (0.1 M adjusted with HCl) until an absorbance of 1.0 at their respective λmax was reached. Levels of AA of 250, 500, and 1000 mg/L were added using a concentrated ascorbic acid stock solution, and a control consisting of each pigment with the absence of AA was maintained. The control consisted of the pigment in the buffer in the absence of AA. An additional test was performed with the same model juice using hydrogen peroxide, a known degradation product of AA. To determine if AA bleaching was due to formation of H2O2, direct addition of it was investigated. In place of added AA, a 62.2 μL of a 0.3% peroxide solution was added to match the molar equivalency of the 500 mg/L AA level, which was 2.84 mM. All samples were brought to the same final volume with additional citrate buffer. […] Samples were stored in the dark at 25° C. in an incubator. UV-Vis spectrophotometry, colorimetry, and HPLC analyses were conducted over a 5 day period following the addition of ascorbic acid or hydrogen peroxide. UV-Vis spectral data was collected every hour for the first 8 hours, and then at 12 hr, and daily from that point on for 5 days. […] HPLC analyses were conducted on days 0, 1, 3, and 5. All treatments were run in triplicate. A SpectraMax 190 Microplate Reader (Molecular Devices, Sunnyvale, Calif., U.S.) with a 96-well plate (poly-D-lysine coated polystyrene) were used for the evaluation of absorbance from 380-700 nm, 1 nm intervals. Aliquots (200 uL) of samples were loaded into individual wells, and a blank consisted of the same citrate buffer used. Because of the rapid nature of AA-induced color loss, degradation kinetics were evaluated in terms of change in maximum absorbance at the original λmax over time. Bleaching is a first-order reaction, typical of ACN degradation, and was modeled as such in determining the reaction rate and half-life. The decrease in maximum absorbance correlated with an increase in lightness (L*) as well as the decrease in chroma (c*). The reduction in maximum absorbance did closely follow first-order kinetics for chokeberry extract and cyanidin-3-galactoside but slightly deviated for 5-carboxypyranocyanidin-3-galactoside. […] The kinetics results for each pigment and AA level can be found in Table 3 below.

A short description of data set [2]: Colorimetry (CIEL*c*h*, ΔE2000) of anthocyanin isolates treated with pyruvic acid, 31 days storage. Conditions: day 0 vs day 31, Delta E2000. Here is the method:
Prior to dilution, the concentrations of the isolated pigment extracts were determined by the pH differential method for subsequent dilution to known concentrations. The isolates were then diluted to 500 μM (expressed as Cyanidin-3-glucoside equivalents) in pH 2.5 deionized water (previously adjusted with HCl) which contained 0.1% potassium sorbate (w/v) and 0.1% sodium benzoate (w/v) to function as preservative agents during storage. A pH of 2.5 was selected as a compromise of several variables: the flavylium form was predominant, the effect of pKh was minimized, and it is a relevant pH for wines. It has been reported that the pKh's of cy3 gal, cy3xylgal, and cy3xylglugal ranges from 3.01 to 3.26. Working at pH 2.5 largely avoided the effect of different equilibrium forms while also maintaining a pH that is similar to that of wines where these compounds are commonly formed. Control samples of each isolate were prepared and contained no pyruvic acid. For treatments containing pyruvic acid, a previously diluted pyruvic acid standard (pyruvic acid in the same pH 2.5 water containing preservatives) was added to obtain concentrations 100× the molar ratio of anthocyanins (50 mM of pyruvic acid). All treatments were brought to the same final volume by the addition of more pH 2.5 water. Samples were filtered through a 0.2 μm membrane into 1.5 mL glass HPLC vials. Vials were capped and stored in an incubator in the dark at 25° C. for a 31 day duration (Fisher Scientific, Waltham, Mass., U.S.). All treatments were prepared in triplicate.
Colorimetric data of samples was calculated from spectra of samples collected from the plate reader with ColorBySpectra. Absorbance data was obtained and conversion to color values was achieved using the following settings: regular transmission, D65 illuminant, and 10° observer angle. Values reported are in the CIEL*c*h* scale. After storage for 31 days, the mathematical differences in color (ΔE) were calculated according to the CIE-L*a*b* Delta E2000 equation. Colorimetric data of the samples containing pyruvic acid was used to correlate with pyranoanthocyanins formation. Spectral absorbance data of the peaks of the anthocyanins and their respective pyranoanthocyanins were also collected from the PDA during uHPLC analyses and converted to colorimetric data using ColorBySpectra under the settings described above. The spectra was obtained from the time of elution of the target compound and then standardized to an absorbance of 1.0 at λvis-max.

Data set [3] is described as follows: Anthocyanin survival of control treatments at pH 2.5 (uHPLC AUC 500-520 nm). Conditions: pH 2.5 acidified water, no pyruvic acid, 25° C., day 31. As to the method: FIG. 10: Pyranoanthocyanin yield for anthocyanins (500 μM) subjected to pyruvic acid treatment (×100 M ratio) and anthocyanin survival of control treatments at pH 2.5 acidified water at day 7, 14, and 31. Yield defined as (AUC500-520 nm of PACN at tn/AUC500-520 nm of ACN @t0)*100. Survival defined as (AUC500-520 nm of ACN at tn/AUC500-520 nm of ACN @ t0)*100. Values shown are means (n=3) and bars represent standard deviation.
A uHPLC system (Shimadzu Nexera-i LC-2040C, Maryland, U.S.) coupled with tandem MS (Shimadzu LCMS-8040, Maryland, U.S.) was used in evaluating initial anthocyanin purity and monitoring changes in anthocyanins with and without pyruvic acid treatment over time. A 0.4 mL/min flow rate was used on a Pinnacle DB (Restek Corporation, Bellefonte, Pa.) C18 Column (1.9 μm particle size, 50×2.1 mm length). The column oven was set at 40° C. The following gradient of solvent A (4.5% formic acid) and B (100% acetonitrile) was used: 0% B for the first minute, ramped to 15% B by 10 min. This method was effective for separation of the formed pyranoanthocyanin from anthocyanin for all isolates except cy3rut which coeluted with the formed pyranoanthocyanin. This was observed through MS-MS data. […]
Quantification of pigments was conducted on day 0, 3, 7, 14, and 31 using a standard curve of cyanidin-3-glucoside (Sigma Aldrich, St. Louis, Mo., U.S.) run under the same conditions used for isolates. Molar absorptivities of anthocyanins and carboxypyranoanthocyanidins have been reported as being relatively similar and were thought to provide a basis of confidence in using AUC500-520 nm as a quantitative measure of pyranoanthocyanin yield.
Prior to dilution, the concentrations of the isolated pigment extracts were determined by the pH differential method for subsequent dilution to known concentrations. The isolates were then diluted to 500 μM (expressed as Cyanidin-3-glucoside equivalents) in pH 2.5 deionized water (previously adjusted with HCl) which contained 0.1% potassium sorbate (w/v) and 0.1% sodium benzoate (w/v) to function as preservative agents during storage. […]

Consider `OC[C@H]1O[C@@H](Oc2cc3c(O)cc(O)cc3[o+]c2-c2ccc(O)c(O)c2)[C@H](O)[C@@H](O)[C@H]1O` [Cyanidin-3-galactoside, cyanidin-3-galactoside], for which the “K (reaction rate, first-order)” value turned out to be 3.18E−02 in data set [1] (250 mg/L AA); 5.90E−02 in data set [1] (500 mg/L AA); 8.64E−02 in data set [1] (1000 mg/L AA); 1.27E−03 in data set [1] (Control, no AA, absorbance at λvis-max). The t1/2 in data set [1] (250 mg/L AA) came to 22 h; in data set [1] (500 mg/L AA), 12 h; in data set [1] (1000 mg/L AA) it was 8 h; in data set [1] (Control, no AA), 546 h. For the same compound, the “reduction in maximum absorbance” value in data set [1] (500 mg/L AA, 5 day period) came to 88%. For the same compound, the “λmax after hypsochromic change” value in data set [1] (500 mg/L AA, after treatment) was determined as 509 nm. Further, in data set [1] (500 mg/L AA, start), the “λmax before hypsochromic change” value is listed as 511 nm. Further, the “slope of reaction rate vs AA level (susceptibility to AA), relative to 5-carboxypyranocyanidin-3-galactoside” value in data set [1] (AA 0-1000 mg/L) amounted to 8.2 ×. The “slope of reaction rate vs AA level, relative to chokeberry extract” value in data set [1] (AA 0-1000 mg/L) stood at 3.1 ×. The “time before a significant difference (p<0.05) in maximum absorbance from time 0” value in data set [1] (all levels of AA added) is 2 h. In addition, the “total color change (ΔE)” value in data set [2] is 8.2. Further, the “anthocyanin survival of control treatment” value in data set [3] worked out at 84%.

The values are drawn from US20180346731A1, “Formation of Stable Pyranoanthocyanins, and Uses Thereof as Sources of Natural Color” (Ohio State Innovation Foundation, priority 2017, published 2018).
